According to patent US20240027453A1, “METHOD FOR DETECTION AND QUANTITATIVE MONITORING OF INFECTIONS WITH HERPESVIRUSES” (The Trustees of Princeton University, priority 2020, published 2024):
Like-named read-outs stand apart in the source and are kept apart here.

System: HCMV
Format: cell-based
Conditions: for UL36 (P16767) protein, numerical value of heatmap FIG. 6C / UL37 (P16778) protein, numerical value of heatmap FIG. 6C / UL122 (P19893) protein, numerical value of heatmap FIG. 6C / UL123 (P13202) protein, numerical value of heatmap FIG. 6C / IRS1 (P09715) protein, numerical value of heatmap FIG. 6C / TRS1 (P09695) protein, numerical value of heatmap FIG. 6C / UL13 (P16755) protein, numerical value of heatmap FIG. 6C: IE
Method: In example herpesvirus PRM assay methods shown herein, cell pellets were lysed in 2% SDS, 100 mM NaCl, 0.5 mM EDTA, 50 mM Tris, pH 8.2, and 50 μg of protein was reduced and alkylated with 25 mM TCEP and 50 mM CAM respectively for 20 min at 70° C. Proteins were then precipitated via methanol chloroform precipitation (Wessel & Flugg, Anal Biochem. 138(1):141-143, 1984), resuspended in 50 mM HEPES, pH 8.2 and digested overnight with trypsin (50:1 protein:enzyme w/w ratio). Digested peptides were desalted by SDB-RPS StageTip as previously described (Lum et al., Cell Syst., 7(6):[…], 2018; Greco et al., Methods Mol Biol 1410:39-63, 2016; Federspiel & Cristea, Methods Mol Biol., 1977:115-143, 2019).
Peptides (1.0 μg on column) were analyzed by LC-MS/MS using a Dionex Ultimate 3000 UHPLC coupled online to an EASYSpray ion source and a Q Exactive HF. Peptides were separated on an EASYSpray C18 column (75 μm×25 cm) heated to 50° C. using a linear gradient of 5% B to 32% B over 60 min at a flow rate of 250 nL/min and were ionized at 1.7 kv. Mobile phase A consisted of 0.1% FA in H2O and mobile phase B consisted of 0.1% FA, 2.9% H2O in ACN.
The PRM method was controlled by a peptide inclusion list with retention time windows of 6 min for selected precursor ions.
The PRM assay was developed and analyzed using the open-source software Skyline (Maclean et al., Bioinformatics 26(7):966-968, 2010). Summed area under the curve of 3-4 transitions per peptide was used for quantitation. Targeted peptides were normalized to host protein loading control peptides. Peptide values for each sample were scaled to the average of each peptide across all runs. The average of multiple peptides was used as the inferred value for the protein measurement when more than one peptide was quantified (Federspiel et al., PLoS Biol. 17(9):e3000437. Doi: 10.1371/journal.pbio.3000437). PRM quantitation data were graphed using the Python Seaborn and Matplotlib libraries.
MRC5 primary human fibroblasts (HFs) (ATCC CCL-171) were used as the model system for HSV-1 and HCMV infections and were cultured in complete growth medium (DMEM supplemented with 10% fetal bovine serum and 1% penicillin-streptomycin antibiotics) at 37° C. and 5% CO2. iSLK.219 cells harboring latent KSHV (a gift from Dr. Britt Glaunsinger, University of California, Berkeley) were grown in complete growth medium supplemented with 500 μg/ml hygromycin (ThermoFisher Scientific, 10687010) at 37° C. and 5% CO2. All cells were used for experiments within a maximum of 10 passages.
Wild type HSV-1 strain 17+ (a gift from Beate Sodeik, Hannover Medical School, Hannover, Germany) was propagated as previously described (Diner et al., 2015). Briefly, PO stocks were generated by electroporating pBAC-HSV-1 into U-2 OS cells. […] In a similar manner, wild type HCMV strain AD169 was produced from BAC electroporation into HFs and working stocks were propagated by infecting HFs at a low level. In both cases, cell-associated virus was released by sonication, combined with supernatant virus, then concentrated by ultracentrifugation (20,000 rpm, 2 hours, 4° C. with SW28 swinging bucket rotor [Beckman Coulter]) over a 10% ficoll (HSV-1) or 20% sorbitol (HCMV) cushion. Virus stock titers were determined by plaque assay for HSV-1 or tissue culture infectious dose (TCID50) for HCMV and infections were performed at a multiplicity of infection (MOI) of 3.
12 hours prior to virus infection or reactivation, cells were treated with either the small molecule drug or DMSO/PBS control at an equivalent volume. […] For infection cycles lasting longer than 24 hours, small molecule drugs were re-added to the cell culture medium every 24 hours. Upon collection, cells were rinsed with PBS, scraped into a microcentrifuge tube, pelleted by centrifugation, and rinsed again with PBS.

Question: Which results are given for `Nc1ccn(C[C@@H](CO)OCP(=O)(O)O)c(=O)n1` [CDV, cidofovir]?
Answer: UL36 (P16767) protein, numerical value of heatmap FIG. 6C (timepoint 48): 0.9304; UL37 (P16778) protein, numerical value of heatmap FIG. 6C (timepoint 48): 0.8657; UL122 (P19893) protein, numerical value of heatmap FIG. 6C (timepoint 48): 0.07563; UL123 (P13202) protein, numerical value of heatmap FIG. 6C (timepoint 48): 0.8515; IRS1 (P09715) protein, numerical value of heatmap FIG. 6C (timepoint 72): 1.017; TRS1 (P09695) protein, numerical value of heatmap FIG. 6C (timepoint 72): 0.9014; UL13 (P16755) protein, numerical value of heatmap FIG. 6C (timepoint 72): 0.8575; UL36 (P16767) protein, numerical value of heatmap FIG. 6C (timepoint 72): 0.8818; UL37 (P16778) protein, numerical value of heatmap FIG. 6C (timepoint 72): 1.038; UL122 (P19893) protein, numerical value of heatmap FIG. 6C (timepoint 72): 0.3738; UL123 (P13202) protein, numerical value of heatmap FIG. 6C (timepoint 72): 0.7924; IRS1 (P09715) protein, numerical value of heatmap FIG. 6C (timepoint 96): 0.9536; TRS1 (P09695) protein, numerical value of heatmap FIG. 6C (timepoint 96): 0.7893; UL13 (P16755) protein, numerical value of heatmap FIG. 6C (timepoint 96): 0.7965; UL36 (P16767) protein, numerical value of heatmap FIG. 6C (timepoint 96): 0.834; UL37 (P16778) protein, numerical value of heatmap FIG. 6C (timepoint 96): 0.936; UL122 (P19893) protein, numerical value of heatmap FIG. 6C (timepoint 96): 0.8676; UL123 (P13202) protein, numerical value of heatmap FIG. 6C (timepoint 96): 0.7732; IRS1 (P09715) protein, numerical value of heatmap FIG. 6C (timepoint 120): 1.003; TRS1 (P09695) protein, numerical value of heatmap FIG. 6C (timepoint 120): 1.103; UL13 (P16755) protein, numerical value of heatmap FIG. 6C (timepoint 120): 1.075; UL36 (P16767) protein, numerical value of heatmap FIG. 6C (timepoint 120): 1.234; UL37 (P16778) protein, numerical value of heatmap FIG. 6C (timepoint 120): 1.212; UL122 (P19893) protein, numerical value of heatmap FIG. 6C (timepoint 120): 1.141; UL123 (P13202) protein, numerical value of heatmap FIG. 6C (timepoint 120): 1.074; MCP (P16729) protein, numerical value of heatmap FIG. 6C (L, timepoint 24): 0.009303; UL25 (P16761) protein, numerical value of heatmap FIG. 6C (L, timepoint 24): 0.02316; UL29 (P16764) protein, numerical value of heatmap FIG. 6C (L, timepoint 24): 0.4352; UL31 (P16848) protein, numerical value of heatmap FIG. 6C (L, timepoint 24): 0.2632; UL43 (P16781) protein, numerical value of heatmap FIG. 6C (L, timepoint 24): 0.06898; UL52 (P16793) protein, numerical value of heatmap FIG. 6C (L, timepoint 24): 0.01391; UL80 (P16753) protein, numerical value of heatmap FIG. 6C (L, timepoint 24): 0.007269; UL82 (P06726) protein, numerical value of heatmap FIG. 6C (L, timepoint 24): 0.2135; UL94 (P16800) protein, numerical value of heatmap FIG. 6C (L, timepoint 24): 0.03193; UL99 (P13200) protein, numerical value of heatmap FIG. 6C (L, timepoint 24): 0.01797; UL103 (P16734) protein, numerical value of heatmap FIG. 6C (L, timepoint 24): 0.236; UL117 (P16770) protein, numerical value of heatmap FIG. 6C (L, timepoint 24): 0.1983; gH (P12824) protein, numerical value of heatmap FIG. 6C (L, timepoint 24): 0.03303; gL (P16832) protein, numerical value of heatmap FIG. 6C (L, timepoint 24): 0.03204; gM (P16733) protein, numerical value of heatmap FIG. 6C (L, timepoint 24): 0.0224; sp|P16809|IR11_HCMVA (P16809) protein, numerical value of heatmap FIG. 6C (L, timepoint 24): 0.04109; CVC1 (P16799) protein, numerical value of heatmap FIG. 6C (L, timepoint 48): 0.1142; MCP (P16729) protein, numerical value of heatmap FIG. 6C (L, timepoint 48): 0.01444; TRM2 (P16792) protein, numerical value of heatmap FIG. 6C (L, timepoint 48): 0.0613; UL22A (P16845) protein, numerical value of heatmap FIG. 6C (L, timepoint 48): 0.07025; UL25 (P16761) protein, numerical value of heatmap FIG. 6C (L, timepoint 48): 0.06426; UL29 (P16764) protein, numerical value of heatmap FIG. 6C (L, timepoint 48): 0.6305; UL31 (P16848) protein, numerical value of heatmap FIG. 6C (L, timepoint 48): 0.2379; UL43 (P16781) protein, numerical value of heatmap FIG. 6C (L, timepoint 48): 0.09529; UL52 (P16793) protein, numerical value of heatmap FIG. 6C (L, timepoint 48): 0.08671; UL80 (P16753) protein, numerical value of heatmap FIG. 6C (L, timepoint 48): 0.04081
